Test results taken from paper PMC10748408 (Frontiers in Oncology, 2023).

Tested on: tumor-bearing mice
Assay: Serum biochemical parameters (ALT, AST, creatinine, urea) of tumor-bearing mice treated with ART
Format: in vivo, BALB/c mice
Details: 7 days
Protocol: Mouse mammary 4T1 cells in passage numbers between 7 and 12 (10^4 cells/ml in 50 µl PBS) were injected into the inguinal 4th mammary fat pad of BALB/c mice ([23], [24]). Normal mice received an equal volume of sterile PBS. A palpable tumor was allowed to develop for 14 days ([24]). […] Normal (mammary fat pad surrounding the 4th inguinal mammary pad), mammary tumor, and organs like lungs, kidney, liver, and blood were collected at the end of the experimental schedule. Body weight and tumor volume of each mouse were recorded daily during the tenure of the experiment. Tumor volume was calculated using the following formula: length (mm) × width^2 (mm) × 0.52 ([25]). Levels of alanine aminotransferase (ALT) and aspartate aminotransferase (AST) from the serum were determined using ALT and AST estimation kits (Robonik India Pvt. Ltd, India). Briefly, for ALT activity estimation, Reagent 1 (Tris Buffer, L-Alanine, Lactate Dehydrogenase) and Reagent 2 (α-ketoglutarate, NADH) was mixed (4:1) with 100 µl serum. After 60 seconds incubation, absorbance was measured at 340 nm every minute for 180 seconds (ΔA/minute). Finally, the activity was estimated using the formula: Activity of the sample = (ΔA/minute x 1746). Analysis and final calculations were carried out according to the manufacturer’s protocol ([29]) For AST activity estimation, Reagent 1 (Tris Buffer, L-Aspartate, Lactate Dehydrogenase; >600U/L, Malate dehydrogenase; >600U/L) and Reagent 2 (α-ketoglutarate, NADH) was mixed together (4:1) with 100 µl serum. After incubation for 60 seconds, absorbance was measured at 340 nm per minute for 180 seconds (ΔA/minute). Finally, the activity was estimated using the formula: Activity of the sample = (ΔA/minute x 1746). Analysis and final calculations were carried out according to the manufacturer’s protocol ([30]). For estimation of creatinine level, picric acid (0.5 ml), buffer (0.5 ml) and sample (Test)/standard (S) (0.1 ml) were mixed and absorbance was measured at 520 nm for 30 seconds and 60 seconds. The rate of change of absorbance was determined for the standard (ΔS) and test (ΔT) samples. The levels were estimated using the formula: creatinine (mg/dl) = (ΔT)/(ΔS) x 2.0 ([31]). Urea levels were estimated using specific metabolite analysis kits. Buffer (1 ml), enzyme (0.1 ml), sample (test)/standard (0.1 ml) and chromogen reagent (0.2 ml) were mixed. Absorbance was measured at 570 nm after 5 minutes of incubation of test (Abs T) and standard (Abs S) samples. The levels were estimated using the formula: Urea (mg/dl) = (AbsT)/(AbsS) x 40. Analysis and calculations were carried out according to the manufacturer’s protocol ([32]).

C[C@@H]1CC[C@H]2[C@@H](C)C(=O)O[C@@H]3O[C@@]4(C)CC[C@@H]1[C@]32OO4 [ART, Artemisinin]
ALT (ART 6.25 mg/kg body wt i.p.): 43.8 ± 1.8 U/l
AST (ART 6.25 mg/kg body wt i.p.): 38.6 ± 2.6 U/l
Creatinine (ART 6.25 mg/kg body wt i.p.): 1.21 ± 0.21 mg/dL
Urea (ART 6.25 mg/kg body wt i.p.): 44.5 ± 1.8 mg/dL
ALT (ART 12.5 mg/kg body wt i.p.): 41.3 ± 3.1 U/l
AST (ART 12.5 mg/kg body wt i.p.): 38.2 ± 2.4 U/l
Creatinine (ART 12.5 mg/kg body wt i.p.): 0.85 ± 0.18 mg/dL
Urea (ART 12.5 mg/kg body wt i.p.): 32.3 ± 0.5 mg/dL
ALT (ART 25 mg/kg body wt i.p.): 38.9 ± 2.9 U/l
AST (ART 25 mg/kg body wt i.p.): 33.2 ± 2.8 U/l
Creatinine (ART 25 mg/kg body wt i.p.): 0.71 ± 0.16 mg/dL
Urea (ART 25 mg/kg body wt i.p.): 32.2 ± 1.1 mg/dL
ALT (ART 50 mg/kg body wt i.p.): 36.6 ± 1.6 U/l
AST (ART 50 mg/kg body wt i.p.): 31.8 ± 2.9 U/l
Creatinine (ART 50 mg/kg body wt i.p.): 0.68 ± 0.11 mg/dL
Urea (ART 50 mg/kg body wt i.p.): 27.1 ± 1.4 mg/dL
